Several values for one entry are separate records, joined by “and”; a condition that tells them apart may be missing. Identical values can stand only once. Like-named read-outs stand apart in the source and are kept apart here.
How the values were obtained:
CYP1A2 = target: T1, CYP1A2 (Homo sapiens, UniProt P05177); assay: Inhibition of recombinant CYP1A2 (probe phenacetin); format: in vitro ADME
T1 construct: purchased Corning Biosciences 456203
T1 sequence (P05177 1-516): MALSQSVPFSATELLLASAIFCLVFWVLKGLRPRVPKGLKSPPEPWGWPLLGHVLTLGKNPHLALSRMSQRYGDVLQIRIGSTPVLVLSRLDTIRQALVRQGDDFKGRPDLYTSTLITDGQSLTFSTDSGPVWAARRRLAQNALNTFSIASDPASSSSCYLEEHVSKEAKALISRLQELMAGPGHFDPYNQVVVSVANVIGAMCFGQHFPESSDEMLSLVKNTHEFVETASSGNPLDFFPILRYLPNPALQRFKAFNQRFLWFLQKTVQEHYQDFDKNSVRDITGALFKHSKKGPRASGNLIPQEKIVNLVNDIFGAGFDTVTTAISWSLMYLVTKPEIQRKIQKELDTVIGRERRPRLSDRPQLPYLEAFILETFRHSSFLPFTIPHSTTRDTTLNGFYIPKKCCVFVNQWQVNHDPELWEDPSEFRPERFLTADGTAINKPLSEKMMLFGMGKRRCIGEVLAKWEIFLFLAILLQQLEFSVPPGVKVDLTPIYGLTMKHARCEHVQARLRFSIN
Method: (§1) In this study, phenacetin (100 μM), coumarin (100 μM), bupropion (100 μM), paclitaxel (60 μM), tolbutamide (200 μM), mephenytoin (100 μM), chlorzoxazone (200 μM) and nifedipine (40 μM) have been used as the probe substrates for CYP1A2, 2A6, 2B6, 2C8, 2C9, 2C19, 2E1 and 3A4, respectively.

[1] = Plasma pharmacokinetics in rats after a 30-min intravenous infusion of Kang-Ai injection; format: in vivo, Sprague–Dawley rats
Method in brief: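 Fasted male Sprague–Dawley rats (250 ± 20 g) got a single 30-min tail-vein infusion of Kang-Ai injection at 6 mL/kg. Jugular blood was sampled from 5 min to 12 h for plasma. Parameters came from non-compartmental analysis (trapezoidal AUC), n = 3.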

CYP2A6 = target: T2, CYP2A6 (Homo sapiens, UniProt P11509); assay: Inhibition of recombinant CYP2A6 (probe coumarin); format: in vitro ADME
T2 sequence (P11509 1-494): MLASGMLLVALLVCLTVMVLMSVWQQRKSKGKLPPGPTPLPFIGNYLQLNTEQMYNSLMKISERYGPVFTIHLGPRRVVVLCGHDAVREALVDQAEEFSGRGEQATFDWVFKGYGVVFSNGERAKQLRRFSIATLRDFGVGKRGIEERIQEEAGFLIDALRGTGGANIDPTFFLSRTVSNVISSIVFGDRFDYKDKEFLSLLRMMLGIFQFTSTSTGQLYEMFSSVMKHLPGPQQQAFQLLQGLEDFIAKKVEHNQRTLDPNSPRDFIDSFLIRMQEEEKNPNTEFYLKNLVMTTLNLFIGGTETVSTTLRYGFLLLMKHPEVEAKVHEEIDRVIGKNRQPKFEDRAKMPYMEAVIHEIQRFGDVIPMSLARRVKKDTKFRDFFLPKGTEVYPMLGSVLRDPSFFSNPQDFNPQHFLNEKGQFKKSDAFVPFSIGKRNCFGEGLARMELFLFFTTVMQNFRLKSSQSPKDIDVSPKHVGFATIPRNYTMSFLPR
Method: as §1

[2] = recombinant isozyme, mean ± SD of triplicate, unit not given (IC50 classes in μM), read-out: IC50 towards CYP1A2
[3] = recombinant isozyme, mean ± SD of triplicate, unit not given (IC50 classes in μM), read-out: IC50 towards CYP2A6
[4] = male, Sprague-Dawley, plasma, rat, 30-min iv infusion of Kang-Ai injection 6 mL/kg, Table 1 unit, read-out: CLtot, p (converted)
[5] = male, Sprague-Dawley, plasma, rat, 30-min iv infusion of Kang-Ai injection 6 mL/kg, Table 1 unit, read-out: VSS
[6] = male, Sprague-Dawley, rat plasma, 30-min iv infusion of Kang-Ai injection 6 mL/kg, read-out: t1/2 (converted)
[7] = male, Sprague-Dawley, rat plasma, 30-min iv infusion of Kang-Ai injection 6 mL/kg, read-out: Cmax
[8] = male, Sprague-Dawley, rat, in vivo, iv

Cmax [1, 7] [nM]	SMILES	IC50 (CYP1A2; [2]) [µM]	IC50 (CYP2A6; [3]) [µM]	clearance [1, 4] [mL/min]	Vd [1, 5] [L]	half-life [1, 6] [h]	also measured
	CC(C)(O)[C@@H]1CC[C@](C)([C@H]2[C@@H](O)C[C@@]3(C)[C@@H]4C[C@H](O[C@@H]5O[C@H](CO)[C@@H](O)[C@H](O)[C@H]5O)[C@H]5C(C)(C)[C@@H](O[C@@H]6OC[C@@H](O)[C@H](O)[C@H]6O)CC[C@@]56C[C@@]46CC[C@]23C)O1 [Compound B2, Astragaloside IV]	> 100	> 100				t1/2 ([1]; rat plasma, 30-min iv infusion of Kang-Ai injection 6 mL/kg): 1.64 ± 0.26 h; Cmax ([1]; rat plasma, 30-min iv infusion of Kang-Ai injection 6 mL/kg, read-out: Cmax): 2360 ± 252 nM; VSS (Vd) ([1]; rat, Kang-Ai injection 6 mL/kg iv): < 0.1 L/kg
	O=C1CCC[C@@H]2[C@H]3CCCN4CCC[C@@H](CN12)[C@@H]34 [Compound A1, Matrine]			0.0263	0.00985 ± 0.00247	4.33 ± 2.18	IC50 (CYP1A2): > 100 µM; clearance ([1]; male, Sprague-Dawley, plasma, rat, Kang-Ai injection 6 mL/kg iv, read-out: CLtot, p (converted)): 1.58 mL/h/kg; Vd ([1]; male, Sprague-Dawley, plasma, rat, Kang-Ai injection 6 mL/kg iv, read-out: VSS (Vd)): 0.00985 L/kg; AUC(0-t) ([1]; male, Sprague-Dawley, rat, plasma, iv, 6 mL/kg, rat plasma, 30-min iv infusion of Kang-Ai injection 6 mL/kg, unit per footnote # for matrine and oxymatrine, read-out: AUC0–12h): 68.6 ± 9.85 µM·h; Cmax ([1]; male, Sprague-Dawley, rat plasma, 30-min iv infusion of Kang-Ai injection 6 mL/kg, unit per footnote # for matrine and oxymatrine, read-out: Cmax): 15100 ± 3580 nM; IC50 (CYP2A6): > 100 µM
497 ± 75.1	CC(C)=CCC[C@](C)(O[C@@H]1O[C@H](CO[C@@H]2O[C@H](CO)[C@@H](O)[C@H](O)[C@H]2O)[C@@H](O)[C@H](O)[C@H]1O)[C@H]1CC[C@]2(C)[C@@H]1[C@H](O)C[C@@H]1[C@@]3(C)CC[C@H](O[C@@H]4O[C@H](CO)[C@@H](O)[C@H](O)[C@H]4O[C@@H]4O[C@H](CO)[C@@H](O)[C@H](O)[C@H]4O)C(C)(C)[C@@H]3CC[C@]12C [Compound D5, Ginsenoside Rb1]	> 100	> 100	0.103	0.047 ± 0.0199	7.22 ± 7.03	
1340 ± 88.1	CC(C)=CCC[C@](C)(O[C@@H]1O[C@H](CO)[C@@H](O)[C@H](O)[C@H]1O)[C@H]1CC[C@]2(C)[C@@H]1[C@H](O)C[C@@H]1[C@@]3(C)CC[C@H](O)C(C)(C)[C@@H]3[C@@H](O[C@@H]3O[C@H](CO)[C@@H](O)[C@H](O)[C@H]3O[C@@H]3O[C@@H](C)[C@H](O)[C@@H](O)[C@H]3O)C[C@]12C [Compound C9, Ginsenoside Re]	> 100	> 100	2.61	0.101 ± 0.027	1.07 ± 0.84	
766 ± 57.9	CC(C)=CCC[C@](C)(O[C@@H]1O[C@H](CO)[C@@H](O)[C@H](O)[C@H]1O)[C@H]1CC[C@]2(C)[C@@H]1[C@H](O)C[C@@H]1[C@@]3(C)CC[C@H](O[C@@H]4O[C@H](CO)[C@@H](O)[C@H](O)[C@H]4O[C@@H]4O[C@H](CO)[C@@H](O)[C@H](O)[C@H]4O)C(C)(C)[C@@H]3CC[C@]12C [Compound D2, Ginsenoside Rd]	> 100	> 100	0.0972		5.84 ± 3.13	Vd ([1]; male, Sprague-Dawley, plasma, rat, 30-min iv infusion of Kang-Ai injection 6 mL/kg, Table 1 unit): 0.0357 ± 0.0114 L/kg
	O=C1CCC[C@@H]2[C@H]3CCC[N+]4([O-])CCC[C@@H](CN12)[C@@H]34 (stereo partly shown) [Compound A3, Oxymatrine]						IC50 (CYP1A2): > 100 µM; Cmax [1, 8]: 423000 ± 55500 nM; Vd [1, 8]: 0.22 L/kg; clearance [1, 8]: 1.86 mL/min/kg and 1.86 mL/min; half-life [1, 8]: 2.73 ± 1.16 h; IC50 (CYP2A6): > 100 µM
	CC(C)=CCC[C@](C)(O)[C@H]1CC[C@]2(C)[C@@H]1[C@H](O)C[C@@H]1[C@@]3(C)CC[C@H](O)C(C)(C)[C@@H]3[C@@H](O[C@@H]3O[C@H](CO)[C@@H](O)[C@H](O)[C@H]3O[C@@H]3O[C@H](CO)[C@@H](O)[C@H](O)[C@H]3O)C[C@]12C [Compound C7, Ginsenoside Rf]	> 100	> 100				Cmax [1, 8]: 943 ± 172 nM; clearance [1, 8]: 1.82 mL/min; half-life [1, 8]: 0.63 ± 0.31 h

SMILES	Cmax [1, 7] [nM]	IC50 (CYP1A2; [2]) [µM]	IC50 (CYP2A6; [3]) [µM]	clearance [1, 4] [mL/min]	Vd [1, 5] [L]	half-life [1, 6] [h]	also measured
CC(C)=CCC[C@](C)(O[C@@H]1O[C@H](CO[C@@H]2O[C@@H](CO)[C@H](O)[C@H]2O)[C@@H](O)[C@H](O)[C@H]1O)[C@H]1CC[C@]2(C)[C@@H]1[C@H](O)C[C@@H]1[C@@]3(C)CC[C@H](O[C@@H]4O[C@H](CO)[C@@H](O)[C@H](O)[C@H]4O[C@@H]4O[C@H](CO)[C@@H](O)[C@H](O)[C@H]4O)C(C)(C)[C@@H]3CC[C@]12C [Compound D3, Ginsenoside Rc]	877 ± 39.5	> 100	> 100	0.0933	0.0378 ± 0.0102	6.29 ± 3.17	
CC(C)=CCC[C@](C)(O[C@@H]1O[C@H](CO)[C@@H](O)[C@H](O)[C@H]1O)[C@H]1CC[C@]2(C)[C@@H]1[C@H](O)C[C@@H]1[C@@]3(C)CC[C@H](O)C(C)(C)[C@@H]3[C@@H](O[C@@H]3O[C@H](CO)[C@@H](O)[C@H](O)[C@H]3O)C[C@]12C [Compound C6, Ginsenoside Rg1]	1570 ± 175	> 100	> 100	2.61	0.144 ± 0.0642	1.2 ± 1.23	

— publication PMC7339578, “Multiple circulating alkaloids and saponins from intravenous Kang-Ai injection inhibit human cytochrome P450 and UDP-glucuronosyltransferase isozymes: potential drug–drug interactions” (Chinese Medicine, 2020)
